ChEMBL document CHEMBL6115028, “An Amazing 30-Year Journey around the DABO Family: A Medicinal Chemistry Lesson on a Versatile Class of Non-nucleoside HIV-1 Reverse Transcriptase Inhibitors” (J Med Chem, 2025)
pEC50, pIC50, pKi: −log10 of the molar value. Values after ≈ are worked out from the molar mass of the structure shown. Each block holds one molecule with its values, some of them ahead of it.

Tests used:
[1] = molecular target: T1, Human immunodeficiency virus type 1 reverse transcriptase (Human immunodeficiency virus 1, UniProt Q72547); assay: Inhibition of wild type HIV-1 Reverse transcriptase
MT4 [2] = assay: Cytotoxicity against human MT4 cells assessed as reduction in cell growth after 5 days by MTT assay; format: functional; conditions: MT4, 120 h, time 5 day
[3] = test system: Human immunodeficiency virus 1; assay: Antiviral activity against wild-type HIV-1 IIIB infected in human MT4 cells assessed as reduction in virus-induced cytopathic effect incubated for 5 days by MTT assay; format: functional, organism-based; conditions: Human immunodeficiency virus 1, IIIB, MT4, 120 h
[4] = test system: Human immunodeficiency virus 1; assay: Antiviral activity against wild type HIV-1 NL4-3 infected in human MT4 cells assessed as reduction in viral replication measured for 72 hrs by ELISA analysis; format: functional, organism-based; conditions: Human immunodeficiency virus 1, NL4-3, MT4, 72 h
[5] = Binding affinity to HIV-1 reverse transcriptase Y181L mutant assessed as inhibition constant; set-up: species or system Human immunodeficiency virus 1
Reverse transcriptase [6] = molecular target: T2, Reverse transcriptase (Human immunodeficiency virus 1, UniProt Q9WKE8, K103N); assay: Binding affinity to HIV-1 reverse transcriptase K103N mutant assessed as inhibition constant
[7] = test system: Human immunodeficiency virus 1; assay: Antiviral activity against HIV-1 NL4-3 harboring infected Y181C mutant infected in human MT4 cells assessed as reduction in viral replication; format: functional, organism-based; conditions: Human immunodeficiency virus 1, NL4-3, MT4
[8] = test system: Human immunodeficiency virus 1; assay: Antiviral activity against NNRTI-resistant HIV-1 harboring E138K mutant infected in human MT4 cells assessed as protection against virus-induced cytopathic effect by MTT assay; format: functional, organism-based; conditions: Human immunodeficiency virus 1, MT4
[9] = test system: Human immunodeficiency virus 1; assay: Antiviral activity against wild type HIV-1 NL4-3 infected in human MT4 cells assessed as reduction in viral replication; format: functional, organism-based; conditions: Human immunodeficiency virus 1, NL4-3, MT4; read-out: EC50
[10] = test system: Human immunodeficiency virus 1; assay: Antiviral activity against HIV-1 NL4-3 harboring infected K103N mutant infected in human MT4 cells assessed as reduction in viral replication; format: functional, organism-based; conditions: Human immunodeficiency virus 1, NL4-3, MT4
Reverse transcriptase [11] = molecular target: T2, Reverse transcriptase; assay: Inhibition of HIV-1 Reverse transcriptase K103N mutant
[12] = test system: Human immunodeficiency virus 1; assay: Antiviral activity against HIV-1 NL4-3 harboring infected Y188L mutant infected in human MT4 cells assessed as reduction in viral replication; format: functional, organism-based; conditions: Human immunodeficiency virus 1, NL4-3, MT4
MT4 [13] = assay: Cytotoxicity against human MT4 cells assessed as reduction in […] incubated for 4 days by MTT assay; format: functional; conditions: MT4, 96 h, time 4 day
[14] = test system: Human immunodeficiency virus 1; assay: Antiviral activity against HIV1 IIIB infected in human MT4 cells assessed as reduction in virus-induced cytopathic effect incubated for 4 days by MTT assay; format: functional, organism-based; conditions: Human immunodeficiency virus 1, IIIB, MT4, 96 h
[15] = Selectivity index, ratio of CC50 for human MT4 cells to EC50 for antiviral activity against HIV1 infected in human MT4 cells; format: toxicity, cell-based; conditions: read-out: Ratio CC50/EC50
[16] = test system: Human immunodeficiency virus 1; assay: Antiviral activity against wild type HIV-1 IIIB infected in human MT4 cells assessed as protection against virus-induced cytopathic effect incubated for 5 days by MTT assay; format: functional; conditions: Human immunodeficiency virus 1, IIIB, MT4, 120 h; time 5 day; read-out: ED50 (the source's name)
[17] = test system: Human immunodeficiency virus 1; assay: Antiviral activity against HIV-1 3B infected in human MT4 cells assessed as reduction in viral replication incubated for 5 days by MTT assay; format: functional, organism-based; conditions: Human immunodeficiency virus 1, 3B, MT4, 120 h
MT4 [18] = assay: Cytotoxicity against human MT4 cells assessed as reduction in cell growth incubated for 5 days by MTT assay; format: functional; conditions: MT4, 120 h, time 5 day
[19] = Cytotoxicity against human PBMC cells; format: toxicity, cell-based
[20] = Toxicity in human C8166 cells assessed as reduction in cell viability incubated for 72 hrs by MTT assay; format: cell-based; conditions: read-out: TD50
[21] = test system: Human immunodeficiency virus 1; assay: Antiviral activity against HIV-1 IIIB infected in human C8166 cells assessed as reduction in viral replication measured for 3 days; format: functional; conditions: Human immunodeficiency virus 1, IIIB, C8166, 72 h; time 3 day; read-out: ED50 (the source's name)
[22] = Toxicity in African green monkey Vero cells assessed as reduction in cell viability incubated for 72 hrs by MTT assay; format: cell-based; conditions: chlorocebus sabaeus, read-out: TD50
Human alphaherpesvirus 1 = assay: Antiviral activity against HSV-1 infected in Vero cells by plaque reduction assay; format: functional; conditions: Human alphaherpesvirus 1, Vero; read-out: ED50 (the source's name)
MT4 [23] = assay: Cytotoxicity against human MT4 cells; format: functional
[24] = test system: Human immunodeficiency virus 1; assay: Antiviral activity against wild type HIV-1 IIIB infected in human MT4 cells assessed as protection against virus-induced cytopathic effect incubated for 72 hrs by MTT assay; format: functional, organism-based; conditions: Human immunodeficiency virus 1, IIIB, MT4, 72 h
[25] = test system: Human immunodeficiency virus 1; assay: Antiviral activity against HIV-1 infected in human MT4 cells; format: functional, organism-based; conditions: Human immunodeficiency virus 1, MT4
[26] = molecular target: T1, Human immunodeficiency virus type 1 reverse transcriptase; assay: Inhibition of recombinant HIV-1 reverse transcriptase associated RNA-dependent DNA polymerase activity

pIC50 [1]: 7.52
Structure (SMILES): CCCNc1nc(C(C)c2c(F)cccc2F)c(C)c(=O)[nH]1 (stereo not drawn)
CC50 (MT4 [2]): > 200000 nM | pEC50 [3]: 7.70

Structure (SMILES): CCN(C)c1nc(C(C)c2c(F)cccc2F)c(C)c(=O)[nH]1 (stereo not drawn)
pEC50 [4]: 8.52 | pKi [5]: 5.40 | pKi (Reverse transcriptase [6]): 6.30

Structure (SMILES): Cc1c(C(C)c2c(F)cccc2F)nc(N(C)C(C)C)[nH]c1=O (stereo not drawn)
pEC50 [4]: 8.30 | pKi [5]: 5.92 | pKi (Reverse transcriptase [6]): 7.10

Structure (SMILES): Cc1c(C(C)c2c(F)cccc2F)nc(N(C)Cc2ccc([N+](=O)[O-])cc2)[nH]c1=O (stereo not drawn)
pEC50 [7]: 6.09 | pEC50 [8]: 6.29 | pEC50 [9]: 8.00 | pEC50 [10]: 6.29

Structure (SMILES): COc1ccc(CN(C)c2nc(C(C)c3c(F)cccc3F)cc(=O)[nH]2)cc1 (stereo not drawn)
pIC50 (Reverse transcriptase [11]): 5.98 | pEC50 [7]: 5.79 | pEC50 [9]: 8.70 | pEC50 [12]: 8.00 | pEC50 [10]: 8.52

Structure (SMILES): COc1ccc(CN(C)c2nc(C(C)c3c(F)cccc3F)c(C)c(=O)[nH]2)cc1 (stereo not drawn)
pEC50 [7]: 7.10 | pEC50 [8]: 6.99 | pEC50 [9]: 8.52 | pEC50 [10]: 6.99

Structure (SMILES): CCCN(C)c1nc(C(C)c2c(F)cccc2F)c(C)c(=O)[nH]1 (stereo not drawn)
pEC50 [4]: 8.30 | pKi [5]: 5.84 | pKi (Reverse transcriptase [6]): 6.77

Structure (SMILES): CCC(C)Sc1nc(O)cc(Cc2cccc3ccccc23)n1 (stereo not drawn)
CC50 (MT4 [13]): > 300000 nM | pEC50 [14]: 6.48 | selectivity ratio [15]: > 909

Structure (SMILES): CCOC1CSc2nc(=O)c(CC)c(Cc3cc(C)cc(C)c3)n21 (stereo not drawn)
pEC50 [16]: 6.15

Structure (SMILES): CCC(C)Sc1nc(Cc2cc(C)cc(C)c2)c(Br)c(=O)[nH]1 (stereo not drawn)
pEC50 [17]: 5.17 | CC50 (MT4 [18]): 153000 nM

Structure (SMILES): C=CCc1c(Cc2cc(C)cc(C)c2)nc(SCC2OCCC(C)O2)[nH]c1=O (stereo not drawn)
pEC50 [17]: 6.26 | CC50 (MT4 [18]): > 100000 nM

Structure (SMILES): Nc1cc(Cl)nc(Sc2ccccc2)n1
CC50 [19]: 207000 nM

Structure (SMILES): COc1ccc(CNc2nc(C(C)c3c(F)cccc3F)cc(=O)[nH]2)cc1 (stereo not drawn)
pIC50 (Reverse transcriptase [11]): 5.30 | pEC50 [7]: 7.22 | pEC50 [9]: 8.52 | pEC50 [12]: < 5.30 | pEC50 [10]: 5.65

Structure (SMILES): CCCCOc1nc(Cc2ccc(OC)cc2)cc(=O)[nH]1
CC50 at 72 h [20]: 100 µg/mL (≈ 347 µM) | EC50 [21]: 25 µg/mL (≈ 86.7 µM) | CC50 at 72 h [22]: 100 µg/mL (≈ 347 µM) | EC50 (Human alphaherpesvirus 1): 50 µg/mL (≈ 173 µM)

Structure (SMILES): COc1cccc(Sc2nc(Cc3cc(C)cc(C)c3)c(C)c(=O)[nH]2)c1
CC50 (MT4 [23]): > 100000 nM | pEC50 [24]: 5.80

Structure (SMILES): CCc1c(Cc2cc(C)cc(C)c2)nc2n(c1=O)COCCS2
pEC50 [16]: 5.80

Structure (SMILES): CCC(C)Sc1nc(Cc2cc(C)cc(C)c2)cc(=O)[nH]1 (stereo not drawn)
pEC50 [17]: 5.92 | CC50 (MT4 [18]): 150000 nM

Structure (SMILES): COc1ccc(Cc2cc(N)nc(OC)n2)cc1
CC50 at 72 h [20]: 50 µg/mL (≈ 204 µM) | EC50 [21]: 12.5 µg/mL (≈ 51 µM) | CC50 at 72 h [22]: 50 µg/mL (≈ 204 µM) | EC50 (Human alphaherpesvirus 1): 25 µg/mL (≈ 102 µM)

pIC50 [1]: 7.46
Structure (SMILES): Cc1c(C(C)c2c(F)cccc2F)nc(NC2CCCCC2)[nH]c1=O (stereo not drawn)
CC50 (MT4 [2]): 90000 nM | pEC50 [3]: 7.70

Structure (SMILES): CSCCSc1nc(C2(c3c(F)cccc3F)CC2)c(C)c(=O)[nH]1
pEC50 [25]: 8.30 | selectivity ratio [15]: 2330 | CC50 (MT4 [23]): 14000 nM

pIC50 [26]: 5.89
Structure (SMILES): Cc1ccccc1Cc1nc(SC2CCCCC2)[nH]c(=O)c1C
CC50 (MT4 [13]): > 304000 nM | pEC50 [14]: 6.22 | selectivity ratio [15]: > 506

Structure (SMILES): CCc1c(Cc2cc(C)cc(C)c2)n2c(nc1=O)SCCOC2
pEC50 [16]: 6.22

Structure (SMILES): COc1ccc(C2CC2CNc2nc(C(C)c3c(F)cccc3F)cc(=O)[nH]2)cc1 (stereo not drawn)
pIC50 (Reverse transcriptase [11]): 6.06 | pEC50 [7]: 7.00 | pEC50 [9]: 9.00 | pEC50 [12]: < 5.30 | pEC50 [10]: 6.89
